*1 amine or outer side, *2 acyl side, *3 side chain or, on linkers, in order; H or OH if unused. Where a SMILES comes first, the peptide text is derived from it. Bridges are numbered along the chain shown (N, C = ends). Roman numbers before positions name the chains, in order. [ ]: non-standard residue; d: D form. Actinocin(9to1) = Cc1c2oc3c(C)ccc(C(=O)[*:1])c3nc-2c(C(=O)[*:2])c(N)c1=O; NMeV = CN[C@H](C(=O)O)C(C)C; Sar = CNCC(=O)O
Test system: Jurkat cells
Test: Electrorotation measurement (ER spectra) of single cells in a microelectrode field cage
Assay type: cell-based
Excerpt: An instrument already described by C. C. Reichle, T. Schnelle, T. Müller, T. Leya and G. Fuhr (2000, A new microsystem for automatic electrorotation measurements using laser tweezers, Biochimica et Biophysica Acta 1459, p. 218- 229), a combination of dielectrophoretical field cages with optical traps, especially laser tweezers, was used for determination of the electrorotation spectra (FIG. 6). […] Reichle and G. Fuhr 2000, Combined dielectrophoretic field cages and laser tweezers for electrorotation, Applied Physics B, Lasers and Optics, Springer Verlag.
Jurkat T lymphoma cells and U937 monocytic cells were cultivated in RPMI-1640 medium supplemented with 10% fetal calf serum and 100 IU/ml penicillin as well as 100 IU/ml streptomycin. Apoptosis was triggered by addition of 5 μg/ml actinomycin D in a culture that was seeded the day before with 2×10^5 cells per ml. The classical morphological changes during apoptosis were documented photographically (see FIG. 1). At different times, an aliquot was taken from the culture, added to a mixture of isotonic phosphate buffer (PBS, D8662 from SIGMA with calcium and magnesium) and, if desired, 0.3 M inositol with correspondingly indicated electrical conductivity, and introduced in a device for measurement of the electrorotation in a microelectrode system. As a control, untreated Jurkat cells were used (FIG. 5). For comparison, electrorotation spectra (ER spectra) were determined from ionomycin-treated cells ([…]) as well as from cells the plasma membrane of which had been damaged by increasing the voltage from 4 V to 6.8 V or a treatment with optical tweezers with 30-60 mW (2.8 A of the 1 W Nd:YAG laser, TEM00, 1064 nm, LD 3000i, Laser Quantum Ltd., Manchester, UK, P.A.L.M. System) for 15 minutes. For this, the cells were transferred individually to the center of the quadrupole or octupole of the microelectrode system. For this, optical tweezers with a power of approx. 30 mW were used in the indicated cases at the site of holding. The frequency of the cell rotation was measured either automatically or using a timer (FIG. 2). The uptake of propidium iodine (5 μm) in necrotically damaged cells or comparative measurements with vital and apoptotic cells (FIGS. 3 and 4) was measured by confocal nanofluorometry (Gradl, T. Müller, C. Reichle, T. Schnelle and G. Fuhr, 1999, Micro-Electrode Systems for Cell Analysis, European Journal of Cell Biology, Suppl. 49, Vol. 78; T. Schnelle, T. Müller, G. Gradl, S. G. Shirley and G. Fuhr, 2000, Dielectrophoretic manipulation of suspended submicron particles, ELECTROPHORESIS 2000, 21, p. 66-73).
The device for measurement of the electrorotation was attached to a fluorescence correlation spectrometer. The cells were made visible over a 40×W 1.2 NA lens. They were excited with 1.5 μW by a helium-neon laser with a wavelength of 543 nm and the radiated fluorescence was passed through a 585 DF 35 band pass filter over a 50 μm pinhole to a photodiode, with which the fluorescence photons were counted.

[1] = ionomycin-treated cell vs. untreated cell, PBS

Structure (SMILES) | ratio of rotation speed at 10 MHz to rotation speed at 2.5 MHz (apoptotic Jurkat cell (actinomycin D, 4 hours), normal cell near 1, necrotic 0.6-0.8) | field frequency of highest rotation speed in ER spectrum (apoptotic Jurkat cell, 5 μg/ml actinomycin D for 4 hours (FIG. 2E), normal cell maximum around 2.5 MHz) | dielectric constant εω in the cell (ionomycin 10 μM, Jurkat cell in PBS, from fits of ER spectra, increase from 45 (untreated)) | conductivity σ (as sum of σ0, Δσ1 and Δσ2) in the cell (ionomycin 10 μM, approx. 5 min, Jurkat cell in PBS, from fits of ER spectra, increase from 0.77 (untreated)) [s m^−1] | increase in the HF conductivity of the cytoplasm [1] | increase of the dielectric constant of the cytoplasm [1]
Cc1c2oc3c(C)ccc(C(=O)N[C@@H]4C(=O)N[C@H](C(C)C)C(=O)N5CCC[C@H]5C(=O)N(C)CC(=O)N(C)[C@@H](C(C)C)C(=O)O[C@@H]4C)c3nc-2c(C(=O)N[C@@H]2C(=O)N[C@H](C(C)C)C(=O)N3CCC[C@H]3C(=O)N(C)CC(=O)N(C)[C@@H](C(C)C)C(=O)O[C@@H]2C)c(N)c1=O [actinomycin D, Actinomycin D] (I: T[dV]P[Sar][NMeV] / II: T[dV]P[Sar][NMeV]; ester I:1-I:C, II:1-II:C; linker I:N-II:N via Actinocin(9to1)) | 1.4 | approx. 10 MHz |  |  |  | 
C[C@H](CCC(=O)O)C[C@H](C)C[C@H](C)C(=O)/C=C(\O)[C@H](C)C[C@H](C)C/C=C/[C@@H](C)[C@@H](O)[C@@H](C)[C@@H](O)C[C@@H]1CC[C@@](C)([C@H]2CC[C@@](C)([C@@H](C)O)O2)O1 [ionomycin, Ionomycin] |  |  | 75 | 1.15 | approx. 40% | more than 60%

From patent publication US7501233B2, “Method for measuring the vitality of cells” (priority 2000, dated 2009)
